{"source": "paper PMC8571282", "about": "(Nature Communications, 2021)", "key": {"[1]": {"experiment": "Single-dose plasma pharmacokinetics in ferrets", "details": "ferret; for plasma concentration of GS-621763: GS-621763 PO 30 mg/kg, 30 mg/kg"}, "in vitro [2]": {"experiment": "in vitro", "details": "human, % cell viability, 72 h"}, "[3]": {"system": "SARS-CoV-2 gamma isolate (BZ/2021, lineage P.1)", "experiment": "microbe, parasite or virus in culture", "type": "cell-based", "details": "Severe acute respiratory syndrome coronavirus 2"}, "[4]": {"system": "SARS-CoV-2 WA1/2020 (lineage A)", "experiment": "microbe, parasite or virus in culture", "type": "cell-based", "details": "for Virus yield reduction: vehicle = 0"}, "[5]": {"set-up": "method as in Mackman et al 2021 (JMC 2021, 64(8), 5001-5017)", "details": "cynomolgus macaques, ref Mackman et al 2021 (JMC 2021, 64(8), 5001-5017); cited from earlier work"}, "[6]": {"system": "SARS-CoV-2-Nluc (WA1/2020-nano luciferase)", "experiment": "microbe, parasite or virus in culture", "type": "cell-based", "details": "for A549-hACE2 SARS-CoV-2 Nluc (EC50 determination), normalized signal: replicate values of the experiments"}, "[7]": {"experiment": "Cytotoxicity assay (PrestoBlue), BHK-21", "details": "hamster, BHK-21 cells"}, "[8]": {"experiment": "Cytotoxicity assay (PrestoBlue), VeroE6", "details": "African green monkey, VeroE6 cells"}, "VeroE6 cells": {"system": "VeroE6 cells", "experiment": "Cytotoxicity assay (PrestoBlue), VeroE6", "details": "72 h"}, "in vitro [9]": {"experiment": "in vitro", "details": "human"}, "[10]": {"system": "SARS-CoV-2 CA/2020 (α, lineage B.1.1.7)", "experiment": "microbe, parasite or virus in culture", "type": "cell-based"}, "[11]": {"system": "SARS-CoV-2 BZ/2021 (γ, lineage P.1)", "experiment": "microbe, parasite or virus in culture", "type": "cell-based", "details": "Severe acute respiratory syndrome coronavirus 2, Vero C1008; BZ/2021, VeroE6, mean n=3"}, "[12]": {"system": "SARS-CoV-2 (WA1/2020 and VOC α, β, γ)", "experiment": "microbe, parasite or virus in culture", "type": "cell-based", "details": "Severe acute respiratory syndrome coronavirus 2, Vero C1008; read-out: Half-maximal effective concentrations (EC50), range"}, "[13]": {"experiment": "Cytotoxicity assay (PrestoBlue), HEp-2", "details": "human, HEp-2 cells, % cell viability, 72 h"}}, "note": "“And” between values parts separate entries of the source, which are not always exact repeats. Equal entries are not always repeated.", "data": [{"smiles": "CC(C)C(=O)OCC1OC(C#N)(c2ccc3c(N)ncnn23)C(OC(=O)C(C)C)C1OC(=O)C(C)C", "note": "(stereo not shown) [GS-621763]", "values": [{"measurement": "oral bioavailability (in words)", "setting": "[1]", "result": "excellent oral bioavailability"}, {"measurement": "plasma concentration of GS-621763", "setting": "[1]; 0.25 h", "result": "9.27 and 11.5 and 13.7"}, {"measurement": "plasma concentration of GS-621763", "setting": "[1]; 1 h", "result": "5.98 and 3.18 and 4.36"}, {"measurement": "plasma GS-621763 (intact prodrug) transiently observed", "setting": "[1]; GS-621763 p.o. 30 mg/kg, first two hours", "result": "approximately 10 nM"}, {"measurement": "GS-441524 in blood relative to intact prodrug", "setting": "[1]; after oral administration of GS-621763", "result": "more than three orders of magnitude higher"}, {"measurement": "viability at 72 h, 1.235 µM", "setting": "in vitro [2]; HCT-8, 1.235 µM", "result": 115, "unit": "%"}, {"measurement": "viability at 72 h, 3.704 µM", "setting": "in vitro [2]; HCT-8, 3.704 µM", "result": 114, "unit": "%"}, {"measurement": "viability at 72 h, 33.333 µM", "setting": "in vitro [2]; HCT-8, 33.333 µM", "result": 106, "unit": "%"}, {"measurement": "EC50", "setting": "[3]", "result": 3010, "unit": "nM"}, {"measurement": "EC50", "setting": "[4]; Severe acute respiratory syndrome coronavirus 2, Vero C1008, WA1/2020, VeroE6, mean n=3", "result": 730, "unit": "nM"}, {"measurement": "Virus yield reduction", "setting": "[4]; WA1/2020, VeroE6, 0.617284 µM", "result": -0.1154}, {"measurement": "Virus yield reduction", "setting": "[4]; WA1/2020, VeroE6, 1.85185 µM", "result": -1.903}, {"measurement": "oral F", "setting": "[5]", "result": 28, "unit": "%"}, {"measurement": "A549-hACE2 SARS-CoV-2 Nluc (EC50 determination), normalized signal", "setting": "[6]; Conc 0.023 µM", "result": "100.31 and 91.27 and 105.35 and 111.17 and 106.25 and 121.34 and 128.97 and 56.85"}, {"measurement": "A549-hACE2 SARS-CoV-2 Nluc (EC50 determination), normalized signal", "setting": "[6]; Conc 0.069 µM", "result": "81.07 and 111.32 and 107.14 and 109.98 and 64.03 and 99.75 and 127.29 and 97.36"}, {"measurement": "A549-hACE2 SARS-CoV-2 Nluc (EC50 determination), normalized signal", "setting": "[6]; Conc 0.206 µM", "result": "99.03 and 101.58 and 96.21 and 106.69 and 74.78 and 94.61 and 130.86 and 135.24"}, {"measurement": "A549-hACE2 SARS-CoV-2 Nluc (EC50 determination), normalized signal", "setting": "[6]; Conc 0.617 µM", "result": "93.09 and 77.54 and 84.50 and 82.94 and 7.92 and 26.38 and 11.95 and 19.80"}, {"measurement": "A549-hACE2 SARS-CoV-2 Nluc (EC50 determination), normalized signal", "setting": "[6]; Conc 1.852 µM", "result": "11.60 and 8.15 and 9.31 and 12.89 and 0.89 and 0.94 and 1.04 and 0.76"}, {"measurement": "A549-hACE2 SARS-CoV-2 Nluc (EC50 determination), normalized signal", "setting": "[6]; Conc 5.556 µM", "result": "0.61 and 1.05 and 0.64 and 0.93 and 0.44 (2×) and 0.49 and 0.36"}, {"measurement": "A549-hACE2 SARS-CoV-2 Nluc (EC50 determination), normalized signal", "setting": "[6]; Conc 16.667 µM", "result": "0.46 and 0.65 and 0.58 and 0.40 and 0.32 (2×) and 0.31 and 0.28"}, {"measurement": "A549-hACE2 SARS-CoV-2 Nluc (EC50 determination), normalized signal", "setting": "[6]; Conc 50.000 µM", "result": "0.15 (3×) and 0.14 and 0.29 (2×) and 0.24 and 0.26"}, {"measurement": "EC50", "setting": "[6]; Severe acute respiratory syndrome coronavirus 2, WA1/2020-nano luciferase, A549-ACE2, mean ± SD", "result": 720, "unit": "nM"}, {"measurement": "CC50 at 72 h", "setting": "[7]", "result": "> 100000", "unit": "nM"}, {"measurement": "viability at 72 h, 0.046 µM", "setting": "[7]; % cell viability, BHK-21, 0.046 µM, 72 h", "result": 76, "unit": "%"}, {"measurement": "viability at 72 h, 1.235 µM", "setting": "[7]; % cell viability, BHK-21, 1.235 µM, 72 h", "result": 90, "unit": "%"}, {"measurement": "viability at 72 h, 3.704 µM", "setting": "[7]; % cell viability, BHK-21, 3.704 µM, 72 h", "result": 90, "unit": "%"}, {"measurement": "viability at 72 h, 33.333 µM", "setting": "[7]; % cell viability, BHK-21, 33.333 µM, 72 h", "result": 91, "unit": "%"}, {"measurement": "viability at 72 h, 100 µM", "setting": "[7]; % cell viability, BHK-21, 100 µM, 72 h", "result": 85, "unit": "%"}, {"measurement": "CC50 at 72 h", "setting": "[8]", "result": "> 100000", "unit": "nM"}, {"measurement": "viability at 72 h, 0.046 µM", "setting": "[8]; % cell viability, VeroE6, 0.046 µM, 72 h", "result": 62, "unit": "%"}, {"measurement": "viability at 72 h, 1.235 µM", "setting": "[8]; % cell viability, VeroE6, 1.235 µM, 72 h", "result": 90, "unit": "%"}, {"measurement": "viability at 72 h, 3.704 µM", "setting": "[8]; % cell viability, VeroE6, 3.704 µM, 72 h", "result": 95, "unit": "%"}, {"measurement": "viability at 72 h, 33.333 µM", "setting": "[8]; % cell viability, VeroE6, 33.333 µM, 72 h", "result": 105, "unit": "%"}, {"measurement": "% cell viability", "setting": "VeroE6 cells; VeroE6, 0.046 µM, 0.046 µM", "result": "61% and 56%"}, {"measurement": "% cell viability", "setting": "VeroE6 cells; VeroE6, 1.235 µM, 1.235 µM", "result": 82, "unit": "%"}, {"measurement": "% cell viability", "setting": "VeroE6 cells; VeroE6, 3.704 µM, 3.704 µM", "result": 97, "unit": "%"}, {"measurement": "% cell viability", "setting": "VeroE6 cells; VeroE6, 33.333 µM, 33.333 µM", "result": 103, "unit": "%"}, {"measurement": "% cell viability", "setting": "VeroE6 cells; VeroE6, 100 µM, 100 µM", "result": "-4% and -6% and -7%"}, {"measurement": "CC50 at 48 h", "setting": "in vitro [9]", "result": "> 47000", "unit": "nM"}, {"measurement": "reduction in titer in vitro (to the limit of detection)", "setting": "[10]", "result": "~ 1 log"}, {"measurement": "EC50", "setting": "[10]; Severe acute respiratory syndrome coronavirus 2, Vero C1008, CA/2020, VeroE6, mean n=3", "result": 210, "unit": "nM"}, {"measurement": "EC50", "setting": "[11]", "result": 220, "unit": "nM"}, {"measurement": "EC50", "setting": "[12]", "result": "110 to 730", "unit": "nM"}, {"measurement": "viability at 72 h, 0.046 µM", "setting": "[13]; HEp-2, 0.046 µM", "result": 53, "unit": "%"}, {"measurement": "viability at 72 h, 1.235 µM", "setting": "[13]; HEp-2, 1.235 µM", "result": 95, "unit": "%"}, {"measurement": "viability at 72 h, 3.704 µM", "setting": "[13]; HEp-2, 3.704 µM", "result": 104, "unit": "%"}]}]}
